The record followed here is patent US20250361239A1, “PROTEIN DEGRADERS AND USES THEREOF” (ZHUHAI YUFAN BIOTECHNOLOGIES CO., LTD., priority 2022, published 2025).

For test [1], the system named is HL60 cells. Briefly: HL60 cell killing experiment (CellTiter-Glo cell viability). Format: cell-based. Conditions: CTG luminescence. On the procedure: HL60 cell lines were purchased from ATCC (Cat #ATCC® CCL-240™), IMDM media were purchased from ATCC (Cat #ATCC® 30-2005™), FBS was purchased from Gibco (Cat #10091148), celltiter-glo luminescent cell viability assay was purchased from promega (Cat #G7572), and 96-well plates were purchased from corning (Cat #3610).
The effect of compounds on the growth of HL60 cells was determined by measuring cell viability. Firstly, cells in the logarithmic growth phase were collected and centrifuged, and the culture supernatant was discarded. The centrifuged cells were resuspended in a fresh complete medium, and the cell density was adjusted to 5×10^4 cells/mL. The resuspended cells were inoculated into two opaque 96-well cell culture plates at 100 μL of cell suspension per well, and the cell culture plates were incubated in a cell incubator at 37° C. for 4 h. After 4 h, dilutions (20 μL) of compounds with different concentrations were added. After one of the cell plates was cooled to room temperature, 60 μL of CTG reagent was added, and the luminescence values were read on the instrument as G0. The other one was incubated in a cell incubator for 48 h. After 48 h, 60 μL of CTG reagent was added, and the luminescence values were read on the instrument as G3.
According to the corresponding proliferation rate and concentration of each gradient concentration well, a gradient curve of cell proliferation was fitted using XLFit software, and the GI50 values of compounds were calculated.
Background: In ATP-based viability assays light output follows the ATP content of the culture.

Test [2] has as its target T1, GSPT1 (Homo sapiens, UniProt P15170+Q96SW2).
T1 construct: host or cells: HEK293
Briefly: Degradation of GSPT1 by the compounds (HiBiT signal in GSPT1/HEK293 hibit cells). Conditions: 6 h incubation, Nano Glo HiBiT Lytic Detection. Format: cell-based. On the procedure:
GSPT1/HEK293 hibit cell lines were constructed by Shanghai BioDuro Co., Ltd., HEK293 cell lines were purchased from ATCC (Cat #ATCC® CRL-1573™), DMEM media were purchased from ATCC (Cat #ATCC® 30-2002™), FBS was purchased from Gibco (Cat #10091148), Nano Glo HiBiT Lytic Detection System was purchased from Promega (Cat #N3040), and 96-well plates were purchased from coming (Cat #3610).
The degradation of GSPT1 by the compounds was determined by measuring the intensity of hibit signals in cells. Firstly, the cells were digested with pancreatin, and the digestion was then terminated with medium. The cells were centrifuged, and the supernatant was discarded. The centrifuged cells were resuspended in a fresh complete medium, and the cell density was adjusted to 2.5×10^4 cells/mL. The resuspended cells were inoculated into an opaque 96-well cell culture plate at 100 μL of cell suspension per well, and the cell culture plate was incubated in a cell incubator at 37° C. overnight. The next day, dilutions (20 μL) of compounds with different concentrations were added, and the plate was incubated in a cell incubator for 6 h. After 6 h, 60 μL of Nano Glo HiBiT Lytic Detection System reagent was added and the luminescence values were read on the instrument.
According to the corresponding degradation rate and concentration of each gradient concentration well, a gradient curve of degradation rate was fitted using XLFit software, and the DC50 values of compounds were calculated.

[3] abbreviates: Homo sapiens, HL-60, 48 h incubation.

Molecules are shown by their SMILES.

T1 sequence (P15170 whole entry): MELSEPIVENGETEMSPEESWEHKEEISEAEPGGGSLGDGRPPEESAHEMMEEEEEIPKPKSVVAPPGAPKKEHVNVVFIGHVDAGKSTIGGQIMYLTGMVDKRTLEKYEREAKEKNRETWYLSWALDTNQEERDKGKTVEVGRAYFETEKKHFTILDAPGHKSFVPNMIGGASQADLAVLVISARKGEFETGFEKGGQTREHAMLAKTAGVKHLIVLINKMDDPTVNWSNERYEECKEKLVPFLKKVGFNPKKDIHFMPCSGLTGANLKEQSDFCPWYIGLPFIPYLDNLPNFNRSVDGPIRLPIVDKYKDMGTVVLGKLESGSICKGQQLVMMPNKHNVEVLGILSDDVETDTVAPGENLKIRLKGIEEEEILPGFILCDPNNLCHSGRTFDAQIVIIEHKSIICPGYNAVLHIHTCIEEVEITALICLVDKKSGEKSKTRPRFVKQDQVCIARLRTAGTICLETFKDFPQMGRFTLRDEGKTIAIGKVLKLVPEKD
T1 sequence (Q96SW2 whole entry): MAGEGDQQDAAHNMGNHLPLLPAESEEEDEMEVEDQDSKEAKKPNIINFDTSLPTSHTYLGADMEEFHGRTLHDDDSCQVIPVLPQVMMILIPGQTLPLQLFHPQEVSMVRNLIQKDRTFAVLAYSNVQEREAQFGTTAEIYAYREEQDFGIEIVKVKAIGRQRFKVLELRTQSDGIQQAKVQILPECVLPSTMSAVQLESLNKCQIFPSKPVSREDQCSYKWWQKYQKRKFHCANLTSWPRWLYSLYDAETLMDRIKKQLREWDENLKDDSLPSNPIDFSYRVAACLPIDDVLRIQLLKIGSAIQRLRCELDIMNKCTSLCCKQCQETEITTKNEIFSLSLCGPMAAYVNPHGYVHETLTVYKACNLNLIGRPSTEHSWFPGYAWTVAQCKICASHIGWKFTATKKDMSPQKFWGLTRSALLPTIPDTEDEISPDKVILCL
T1 sequence (Q16531 whole entry partner): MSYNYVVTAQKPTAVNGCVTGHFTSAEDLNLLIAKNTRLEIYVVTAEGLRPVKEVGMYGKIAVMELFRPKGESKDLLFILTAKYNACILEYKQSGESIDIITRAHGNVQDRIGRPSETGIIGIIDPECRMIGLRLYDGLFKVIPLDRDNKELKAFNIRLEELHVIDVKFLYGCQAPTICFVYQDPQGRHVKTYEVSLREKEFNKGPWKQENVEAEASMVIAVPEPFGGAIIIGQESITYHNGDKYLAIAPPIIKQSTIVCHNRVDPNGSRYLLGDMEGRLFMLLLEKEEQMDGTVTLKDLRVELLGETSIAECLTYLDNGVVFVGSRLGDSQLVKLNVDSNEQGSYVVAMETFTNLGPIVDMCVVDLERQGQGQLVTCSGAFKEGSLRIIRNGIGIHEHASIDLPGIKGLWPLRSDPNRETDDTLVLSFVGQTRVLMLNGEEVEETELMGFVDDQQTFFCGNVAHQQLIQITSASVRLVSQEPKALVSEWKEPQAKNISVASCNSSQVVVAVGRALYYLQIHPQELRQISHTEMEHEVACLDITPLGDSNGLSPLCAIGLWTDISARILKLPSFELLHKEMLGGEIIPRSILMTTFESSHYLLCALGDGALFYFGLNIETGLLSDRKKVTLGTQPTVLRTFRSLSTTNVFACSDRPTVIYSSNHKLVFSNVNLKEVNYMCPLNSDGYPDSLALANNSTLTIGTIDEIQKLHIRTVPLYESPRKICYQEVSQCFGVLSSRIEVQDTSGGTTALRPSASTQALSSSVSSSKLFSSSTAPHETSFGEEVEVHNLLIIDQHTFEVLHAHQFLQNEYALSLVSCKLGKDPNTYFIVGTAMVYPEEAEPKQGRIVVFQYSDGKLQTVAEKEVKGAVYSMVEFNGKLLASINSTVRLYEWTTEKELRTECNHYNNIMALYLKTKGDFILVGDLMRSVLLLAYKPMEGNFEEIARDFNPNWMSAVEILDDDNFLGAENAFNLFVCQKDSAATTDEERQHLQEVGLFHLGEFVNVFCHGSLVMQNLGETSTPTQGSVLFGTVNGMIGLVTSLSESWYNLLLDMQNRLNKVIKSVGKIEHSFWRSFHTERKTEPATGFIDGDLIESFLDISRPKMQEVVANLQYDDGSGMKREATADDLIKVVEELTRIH

One may read the GI50 as the concentration that inhibits growth by half. Higher therefore signals less potent growth inhibition. One may read the DC50 as the concentration giving 50% degradation. Lower therefore signals a more potent degrader. On to `O=C1CCC(N2C(=O)c3cccc(NCc4cccc(C(=O)NC5CCC(c6nc7ccccc7o6)CC5)c4)c3C2=O)C(=O)N1` (centres unmarked) [Example 17], for which, in test [1] (48 h incubation), the GI50 was < 100 nM. For the same compound, the DC50 in test [2] is < 100 nM.

In the case of `COc1ccc2nc([C@H]3CC[C@H](CNc4cc(COc5cccc6c5CN(C5CCC(=O)NC5=O)C6=O)ccn4)CC3)sc2n1` (some centres unmarked) [Example 136], the DC50 in test [2] is < 100 nM.

For `Cn1c(C2CCC(NC(=O)CCCCNc3cccc4c3C(=O)N(C3CCC(=O)NC3=O)C4=O)CC2)nc2ccncc21` (centres unmarked) [Example 8], the GI50 in test [1] (setting [3]) was < 100 nM. Also, in test [2], the DC50 is < 100 nM.

As for `Cn1c2ncccc2nc1[C@H]1CC[C@H](NC(=O)c2cc(CNc3cccc4c3C(=O)N(C3CCC(=O)NC3=O)C4=O)ccn2)CC1` (some centres unmarked) [Example 43], the GI50 in test [1] (setting [3]) was < 100 nM. In addition, the DC50 in test [2] is < 100 nM.

Consider `COc1ccc(CNc2cccc3c2C(=O)N(C2CCC(=O)NC2=O)C3=O)cc1C(=O)N[C@H]1CC[C@H](c2nc3ncccc3s2)CC1` (some centres unmarked) [Example 95], for which the GI50 in test [1] (setting [3]) is < 100 nM. For the same compound, in test [2], the DC50 is < 100 nM.

Take `Cn1c(C2CCC(NC(=O)c3cc(CNc4cccc5c4C(=O)N(C4CCC(=O)NC4=O)C5=O)ccn3)CC2)nc2ccncc21` (centres unmarked) [Example 23]: the GI50 in test [1] (setting [3]) is < 100 nM. The DC50 in test [2] was < 100 nM.

For `Cn1c(C2CC3(CC(NC(=O)c4cccc(CNc5cccc6c5C(=O)N(C5CCC(=O)NC5=O)C6=O)c4)C3)C2)nc2ccncc21` (centres unmarked) [Example 69], the GI50 in test [1] (setting [3]) was < 100 nM. In addition, the DC50 in test [2] is < 100 nM.

For `O=C1CCC(N2C(=O)c3cccc(NCc4cccc(NC(=O)[C@H]5CC[C@H](c6nc7cccnc7s6)CC5)c4)c3C2=O)C(=O)N1` (some centres unmarked) [Example 59], in test [1] (setting [3]), the GI50 is < 100 nM. Besides, the DC50 in test [2] was < 100 nM.

On to `Cn1c2ccccc2nc1[C@H]1CC[C@H](N2Cc3ccc(CNc4cccc5c4C(=O)N(C4CCC(=O)NC4=O)C5=O)cc3C2=O)CC1` (some centres unmarked) [Example 68], for which the GI50 in test [1] (setting [3]) is < 100 nM.

Turning to `Cn1c(C2CCC(NC(=O)c3cc(CNc4cccc5c4C(=O)N(C4CCC(=O)NC4=O)C5=O)ccc3F)CC2)nc2ccncc21` (centres unmarked) [Example 77], the GI50 in test [1] (setting [3]) is < 100 nM. The DC50 in test [2] is < 100 nM.

As for `COc1ccc(CNc2cccc3c2C(=O)N(C2CCC(=O)NC2=O)C3=O)cc1C(=O)N[C@H]1CC[C@H](c2nc3cc(N)ccc3s2)CC1` (some centres unmarked) [Example 133], the DC50 in test [2] is < 100 nM.

Take `COc1ncc(CNc2cccc3c2C(=O)N(C2CCC(=O)NC2=O)C3=O)cc1C(=O)N[C@H]1CC[C@H](c2nc3cccnc3s2)CC1` (some centres unmarked) [Example 134]: the half-maximal degradation concentration (DC50) in test [2] is < 100 nM.

Take `COc1cnc2sc([C@H]3CC[C@H](C(=O)Nc4cccc(CNc5cccc6c5C(=O)N(C5CCC(=O)NC5=O)C6=O)c4)CC3)nc2c1` (some centres unmarked) [Example 98]: the GI50 in test [1] (setting [3]) is < 100 nM. Moreover, the DC50 in test [2] was < 100 nM.

On to `O=C1CCC(N2C(=O)c3cccc(NCc4cccc(C(=O)NC5CCC(c6cc7sccc7s6)CC5)c4)c3C2=O)C(=O)N1` (centres unmarked) [Example 66], for which, in test [1] (setting [3]), the GI50 was < 100 nM. For the same compound, the DC50 in test [2] is < 100 nM.

In the case of `O=C1CCC(N2C(=O)c3cccc(NCc4cccc(C(=O)NC5CCC(c6n[nH]c7ccncc67)CC5)c4)c3C2=O)C(=O)N1` (centres unmarked) [Example 20], in test [1] (setting [3]), the GI50 is < 100 nM.

On to `CNc1ccc2c(c1)nc(C1CCC(NC(=O)c3cccc(CNc4cccc5c4C(=O)N(C4CCC(=O)NC4=O)C5=O)c3)CC1)n2C` (centres unmarked) [Example 86], for which the GI50 in test [1] (setting [3]) is < 100 nM. Also, the DC50 in test [2] was < 100 nM.

As for `O=C1CCC(N2C(=O)c3cccc(NCc4cccc(C(=O)NC5CCCC(F)C5)c4)c3C2=O)C(=O)N1` (centres unmarked) [Example 1], the GI50 in test [1] (setting [3]) was < 100 nM. In addition, the half-maximal degradation concentration (DC50) in test [2] was < 100 nM.

`O=C1CCC(N2C(=O)c3cccc(NCc4ccnc(NC[C@H]5CC[C@H](c6nc7cccnc7s6)CC5)c4)c3C2=O)C(=O)N1` (some centres unmarked) [Example 28]: in test [1] (setting [3]), the GI50 is < 100 nM.

Regarding `O=C1CCC(N2C(=O)c3cccc(NC4(c5ccnc(C(=O)N[C@H]6CC[C@H](c7nc8cccnc8s7)CC6)c5)CC4)c3C2=O)C(=O)N1` (some centres unmarked) [Example 92], the GI50 in test [1] (setting [3]) is < 100 nM.

Regarding `O=C1CCC(N2C(=O)c3cccc(NCc4cccc(C(=O)NC5CCC(c6ccccc6)CC5)c4)c3C2=O)C(=O)N1` (centres unmarked) [Example 4], in test [2], the DC50 was < 100 nM.

Turning to `CN(C)c1ccc2c(c1)nc(C1CCC(NC(=O)c3cccc(CNc4cccc5c4C(=O)N(C4CCC(=O)NC4=O)C5=O)c3)CC1)n2C` (centres unmarked) [Example 102], the GI50 in test [1] (setting [3]) was < 100 nM.

In the case of `Cn1c2ccc(CNc3cccc4c3C(=O)N(C3CCC(=O)NC3=O)C4=O)cc2nc1[C@H]1CC[C@H](c2nc3cccnc3s2)CC1` (some centres unmarked) [Example 73], the GI50 in test [1] (setting [3]) was < 100 nM.

As to `O=C1CCC(N2C(=O)c3cccc(NCc4cccc(C(=O)NC5CCC(c6csc7ccccc67)CC5)c4)c3C2=O)C(=O)N1` (centres unmarked) [Example 45], in test [1] (setting [3]), the GI50 was < 100 nM.

As to `CN(C[C@H]1CC[C@H](c2nc3cccnc3s2)CC1)c1cc(CNc2cccc3c2C(=O)N(C2CCC(=O)NC2=O)C3=O)ccn1` (some centres unmarked) [Example 64], the GI50 in test [1] (setting [3]) was < 100 nM.

Turning to `Cn1c(C2CC(NC(=O)c3cccc(CNc4cccc5c4C(=O)N(C4CCC(=O)NC4=O)C5=O)c3)C2)nc2ccncc21` (centres unmarked) [Example 9], in test [2], the DC50 is < 100 nM.

Regarding `CN(C)c1cc2c(cn1)nc([C@H]1CC[C@H](NC(=O)c3cc(CNc4cccc5c4C(=O)N(C4CCC(=O)NC4=O)C5=O)ccn3)CC1)n2C` (some centres unmarked) [Example 106], in test [1] (setting [3]), the GI50 is < 100 nM.

Regarding `COc1cc2nc(C3CCC(NC(=O)c4cccc(CNc5cccc6c5C(=O)N(C5CCC(=O)NC5=O)C6=O)c4)CC3)n(C)c2cn1` (centres unmarked) [Example 88], in test [1] (setting [3]), the GI50 is < 100 nM.

As for `O=C1CCC(N2C(=O)c3cccc(NCc4cccc(C(=O)NC5CCCC(F)(F)C5)c4)c3C2=O)C(=O)N1` (centres unmarked) [Example 3], the DC50 in test [2] is < 100 nM.

Regarding `O=C1CCC(N2C(=O)c3cccc(NCc4cccc5c4CCN5C(=O)[C@H]4CC[C@H](c5nc6cccnc6s5)CC4)c3C2=O)C(=O)N1` (some centres unmarked) [Example 87], in test [1] (setting [3]), the GI50 was < 100 nM.

`Cn1c(N2CCC(NC(=O)c3cc(CNc4cccc5c4C(=O)N(C4CCC(=O)NC4=O)C5=O)ccn3)CC2)nc2ccccc21` (centres unmarked) [Example 41]: the GI50 in test [1] (setting [3]) is < 100 nM.

With `Cn1c2cnccc2nc1[C@H]1CC[C@H](C(=O)Nc2cccc(CNc3cccc4c3C(=O)N(C3CCC(=O)NC3=O)C4=O)c2F)CC1` (some centres unmarked) [Example 78], the GI50 in test [1] (setting [3]) is < 100 nM.

As to `CN(C)c1cc2c(cn1)nc([C@H]1CC[C@H](C(=O)Nc3cccc(CNc4cccc5c4C(=O)N(C4CCC(=O)NC4=O)C5=O)c3)CC1)n2C` (some centres unmarked) [Example 103], the GI50 in test [1] (setting [3]) was < 100 nM.

For the compound `COc1ccc2nc([C@H]3CC[C@H](CNc4cc(CNc5cccc6c5C(=O)N(C5CCC(=O)NC5=O)C6=O)ccn4)CC3)sc2n1` (some centres unmarked) [Example 137], the DC50 in test [2] is < 100 nM.

As for `COc1ccc(CNc2cccc3c2C(=O)N(C2CCC(=O)NC2=O)C3=O)cc1C(=O)N[C@H]1CC[C@H](c2nc3cc(N)cnc3s2)CC1` (some centres unmarked) [Example 132], the DC50 in test [2] is < 100 nM.

Regarding `O=C1CCC(N2C(=O)c3cccc(NCc4cccc(C(=O)NC5CCC(c6csc7ccccc67)CC5)c4)c3C2=O)C(=O)N1` (centres unmarked) [Example 46], in test [1] (48 h incubation), the GI50 was < 100 nM.

For the compound `Cn1c2cc(N)ccc2nc1[C@H]1CC[C@H](NC(=O)c2cc(CNc3cccc4c3C(=O)N(C3CCC(=O)NC3=O)C4=O)ccn2)CC1` (some centres unmarked) [Example 131], in test [2], the 50% degradation concentration (DC50) is < 100 nM.

On to `O=C1CCC(N2Cc3c(OCc4ccnc(NC[C@H]5CC[C@H](c6nc7cccnc7s6)CC5)c4)cccc3C2=O)C(=O)N1` (some centres unmarked) [Example 135], for which the DC50 in test [2] is < 100 nM.

As to `O=C1CCC(N2C(=O)c3cccc(NCc4cccc(C(=O)NC5CCC(c6csc7ncccc67)CC5)c4)c3C2=O)C(=O)N1` (centres unmarked) [Example 54], the GI50 in test [1] (setting [3]) is < 100 nM.
